In patent US7691816B2, “Pharmaceutical compositions” (Renovo Ltd., priority 2005, dated 2010):

Assay: Localised pain and erythema associated with intradermal injection of formulations
Format: in vivo, human
Procedure: A study was conducted to evaluate localised pain and erythema associated with intradermal injection of medicaments manufactured in accordance with the invention and the pain and erythema associated with control injections of prior art compositions.
Experimental injectable solutions were prepared as described above.
Briefly, a volume of 100 μL of each formulation described above was injected intradermally into the inner aspect of the upper arms of a volunteer. In addition to the DS11 control described above, a solution of the known local anaesthetic lignocaine was also used as a further control. The pain on injection and erythema were categorised by the volunteer and a clinician.
Both the volunteer and the clinician undertook these evaluations. The extent of pain or erythema associated with the different formulations used was rated based upon the following categories (listed in ascending severity): […]

[1] = Volunteer 1, 100 μL intradermal, inner aspect of upper arm
[2] = Volunteer 2, 100 μL intradermal, inner aspect of upper arm

Molecule | Pain (in vivo) | Erythema (Table 4, summary of Table 3) | Pain (Table 4, summary of Table 3) | Erythema [1] | Pain [1] | Erythema [2] | Pain [2]
Glucose | None | – | – | – | – | – | –
CCN(CC)CC(=O)Nc1c(C)cccc1C [Lignocaine, lignocaine] | – | Marked | Marked | Marked | Marked | Marked | Marked
